According to PubChem BioAssay AID248 (DTP/NCI, 2004):
Toxic doses and inconclusive results are not listed. No stated cut-off is given here; in the data, active means T/C of 150% or more; inactive means T/C below 125%.

Tested on: L1210 leukemia ip in BDF1 mice, survival T/C
Experiment: NCI In Vivo Anticancer Drug Screen. Data for tumor model L1210 Leukemia (intraperitoneal) in B6D2F1 (BDF1) mice
Details: endpoint: mean survival time, vehicle: saline with Tween-80, higher = longer survival
Method in brief: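 Ratio derived from survival: compound-dosed mice over vehicle-dosed mice, all bearing a transplantable tumor.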

Measured: T/C

NC(N)=NNC(=S)S
inactive: dose: 25.0 mg/kg/injection, schedule: Q01DX009 (ip) 102 % of control | dose: 50.0 mg/kg/injection, schedule: Q01DX009 (ip) 110 % of control | dose: 50.0 mg/kg/injection, schedule: Q04DX003 (ip) 95 % of control | dose: 100.0 mg/kg/injection, schedule: Q04DX003 (ip) 92 % of control
